ChEMBL document CHEMBL1126937, “Synthesis of new 11 beta-substituted spirolactone derivatives. Relationship with affinity for mineralocorticoid and glucocorticoid receptors” (J Med Chem, 1993)

These compounds were tested against T1, Mineralocorticoid receptor (Homo sapiens) (UniProt P08235) (assay: Displacement of [3H]aldosterone from mineralocorticoid receptor of rabbit kidney). Conditions: Oryctolagus cuniculus; target entry is the homologue from another species.
T1 sequence (whole entry): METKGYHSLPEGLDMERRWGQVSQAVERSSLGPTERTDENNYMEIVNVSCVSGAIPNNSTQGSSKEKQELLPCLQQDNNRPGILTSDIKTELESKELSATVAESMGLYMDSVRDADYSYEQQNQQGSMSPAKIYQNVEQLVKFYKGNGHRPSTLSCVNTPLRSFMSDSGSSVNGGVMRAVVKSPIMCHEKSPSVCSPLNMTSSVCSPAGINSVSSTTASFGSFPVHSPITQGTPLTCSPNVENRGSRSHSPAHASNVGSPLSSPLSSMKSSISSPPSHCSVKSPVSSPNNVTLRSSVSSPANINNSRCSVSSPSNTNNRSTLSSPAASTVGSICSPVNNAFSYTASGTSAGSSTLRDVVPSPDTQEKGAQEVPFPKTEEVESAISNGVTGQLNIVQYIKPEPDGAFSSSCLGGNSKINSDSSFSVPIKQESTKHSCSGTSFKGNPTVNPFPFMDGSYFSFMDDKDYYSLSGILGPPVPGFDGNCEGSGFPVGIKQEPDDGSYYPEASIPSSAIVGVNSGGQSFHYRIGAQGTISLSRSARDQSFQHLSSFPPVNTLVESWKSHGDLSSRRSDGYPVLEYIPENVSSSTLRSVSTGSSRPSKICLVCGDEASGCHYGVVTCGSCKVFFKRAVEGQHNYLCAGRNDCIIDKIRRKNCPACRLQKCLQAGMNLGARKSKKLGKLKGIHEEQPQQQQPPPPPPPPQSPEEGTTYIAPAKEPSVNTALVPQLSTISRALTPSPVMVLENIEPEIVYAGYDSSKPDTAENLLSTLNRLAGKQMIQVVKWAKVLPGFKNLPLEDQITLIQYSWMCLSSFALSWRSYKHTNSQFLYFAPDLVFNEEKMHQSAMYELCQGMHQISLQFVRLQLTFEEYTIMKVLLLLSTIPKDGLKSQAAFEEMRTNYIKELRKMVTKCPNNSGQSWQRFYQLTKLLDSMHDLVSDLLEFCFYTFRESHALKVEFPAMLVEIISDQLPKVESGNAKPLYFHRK

RBA	Structure (SMILES)
110%	C=C=C[C@H]1C[C@@]2(C)C(CC[C@@]23CCC(=O)O3)C2CCC3=CC(=O)CCC3=C21 (some centres undefined)
< 0.1%	C[C@]12C[C@H](CCCO)C3=C4CCC(=O)C=C4CCC3C1CC[C@@]21CCC(=O)O1 (some centres undefined)
< 0.1%	CC(C)(C)OCCC[C@H]1C[C@@]2(C)C(CC[C@@]23CCC(=O)O3)C2CCC3=CC(=O)CCC3=C21 (some centres undefined)
14%	C=C[C@H]1C[C@@]2(C)C(CC[C@@]23CCC(=O)O3)C2CCC3=CC(=O)CCC3=C21 (some centres undefined)
13%	C[C@]12CCC3=C4CCC(=O)C=C4CCC3C1CC[C@@]21CCC(=O)O1 (some centres undefined)
6%	C[C@H]1C[C@@]2(C)C(CC[C@@]23CCC(=O)O3)C2CCC3=CC(=O)CCC3=C21 (some centres undefined)
7%	C/C=C1\C[C@@]2(C)C(CC[C@@]23CCC(=O)O3)C2CCC3=CC(=O)CCC3=C12 (some centres undefined)
0.5%	COCCC[C@H]1C[C@@]2(C)C(CC[C@@]23CCC(=O)O3)C2CCC3=CC(=O)CCC3=C21 (some centres undefined)

Second part, the compound before the results:

Structure (SMILES)	RBA
C[C@]12CCC(=O)C=C1CC[C@@H]1[C@@H]2[C@@H](O)C[C@]2(C=O)[C@@H](C(=O)CO)CC[C@@H]12	100%
CC(=O)S[C@@H]1CC2=CC(=O)C=C[C@]2(C)[C@H]2CC[C@@]3(C)[C@@H]([C@@H]4C[C@@H]4[C@@]34CCC(=O)O4)[C@H]12	21%
C=C/C=C1\C[C@@]2(C)C(CC[C@@]23CCC(=O)O3)C2CCC3=CC(=O)CCC3=C12 (some centres undefined)	2%
C[C@]12CCC(=O)C=C1C=C[C@@H]1[C@@H]2CC[C@@]2(C)[C@H]1CC[C@@]21CCC(=O)O1	1%
C[C@@H]1C[C@H]2[C@@H]3CCC4=CC(=O)C=C[C@]4(C)[C@@]3(F)[C@@H](O)C[C@]2(C)[C@@]1(O)C(=O)CO	20%
CC(=O)S[C@@H]1CC2=CC(=O)CC[C@]2(C)[C@H]2CC[C@@]3(C)[C@@H](CC[C@@]34CCC(=O)O4)[C@H]12	4%
